Experimental data: ChEMBL document CHEMBL3351316, “Scaffold hopping approach on the route to selective tankyrase inhibitors” (Eur J Med Chem, 2014)

What was measured:
Tankyrase 1/2 = target: T1, Tankyrase 1/2 (Homo sapiens, UniProt Q9H2K2+O95271); assay: Inhibition of tankyrase in human DLD1 cells assessed as reduction in Wnt activity after 24 hrs by TCF-luciferase reporter gene assay; assay type: cell-based; settings: dld-1
T1 sequence (Q9H2K2 whole entry): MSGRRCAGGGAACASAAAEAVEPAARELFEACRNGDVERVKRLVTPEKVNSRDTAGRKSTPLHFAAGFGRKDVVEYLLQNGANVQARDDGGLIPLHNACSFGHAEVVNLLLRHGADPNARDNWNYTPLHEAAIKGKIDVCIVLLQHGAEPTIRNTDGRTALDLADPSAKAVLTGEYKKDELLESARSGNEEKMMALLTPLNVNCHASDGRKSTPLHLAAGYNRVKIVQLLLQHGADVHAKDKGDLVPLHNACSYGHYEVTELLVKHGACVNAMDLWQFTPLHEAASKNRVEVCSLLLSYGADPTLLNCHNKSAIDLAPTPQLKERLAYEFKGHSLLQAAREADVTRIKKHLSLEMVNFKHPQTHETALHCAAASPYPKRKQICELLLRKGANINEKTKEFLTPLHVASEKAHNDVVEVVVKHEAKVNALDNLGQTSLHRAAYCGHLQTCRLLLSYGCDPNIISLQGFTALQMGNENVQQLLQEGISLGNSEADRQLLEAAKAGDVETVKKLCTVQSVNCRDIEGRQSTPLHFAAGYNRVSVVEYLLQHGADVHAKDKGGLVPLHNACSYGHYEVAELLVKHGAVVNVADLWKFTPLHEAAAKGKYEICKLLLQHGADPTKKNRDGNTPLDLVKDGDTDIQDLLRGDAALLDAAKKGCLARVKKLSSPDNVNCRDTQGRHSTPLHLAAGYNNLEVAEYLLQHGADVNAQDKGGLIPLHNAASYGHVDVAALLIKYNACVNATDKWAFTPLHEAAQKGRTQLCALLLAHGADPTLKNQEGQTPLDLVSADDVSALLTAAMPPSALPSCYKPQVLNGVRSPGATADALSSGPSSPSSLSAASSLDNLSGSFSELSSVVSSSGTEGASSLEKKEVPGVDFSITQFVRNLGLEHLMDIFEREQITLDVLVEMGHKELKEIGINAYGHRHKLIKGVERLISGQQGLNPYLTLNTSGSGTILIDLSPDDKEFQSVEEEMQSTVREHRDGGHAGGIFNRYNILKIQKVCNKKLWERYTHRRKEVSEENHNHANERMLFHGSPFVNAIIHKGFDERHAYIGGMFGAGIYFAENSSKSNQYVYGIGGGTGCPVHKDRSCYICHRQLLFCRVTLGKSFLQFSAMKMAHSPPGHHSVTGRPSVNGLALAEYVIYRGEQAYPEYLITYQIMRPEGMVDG
T1 sequence (O95271 whole entry): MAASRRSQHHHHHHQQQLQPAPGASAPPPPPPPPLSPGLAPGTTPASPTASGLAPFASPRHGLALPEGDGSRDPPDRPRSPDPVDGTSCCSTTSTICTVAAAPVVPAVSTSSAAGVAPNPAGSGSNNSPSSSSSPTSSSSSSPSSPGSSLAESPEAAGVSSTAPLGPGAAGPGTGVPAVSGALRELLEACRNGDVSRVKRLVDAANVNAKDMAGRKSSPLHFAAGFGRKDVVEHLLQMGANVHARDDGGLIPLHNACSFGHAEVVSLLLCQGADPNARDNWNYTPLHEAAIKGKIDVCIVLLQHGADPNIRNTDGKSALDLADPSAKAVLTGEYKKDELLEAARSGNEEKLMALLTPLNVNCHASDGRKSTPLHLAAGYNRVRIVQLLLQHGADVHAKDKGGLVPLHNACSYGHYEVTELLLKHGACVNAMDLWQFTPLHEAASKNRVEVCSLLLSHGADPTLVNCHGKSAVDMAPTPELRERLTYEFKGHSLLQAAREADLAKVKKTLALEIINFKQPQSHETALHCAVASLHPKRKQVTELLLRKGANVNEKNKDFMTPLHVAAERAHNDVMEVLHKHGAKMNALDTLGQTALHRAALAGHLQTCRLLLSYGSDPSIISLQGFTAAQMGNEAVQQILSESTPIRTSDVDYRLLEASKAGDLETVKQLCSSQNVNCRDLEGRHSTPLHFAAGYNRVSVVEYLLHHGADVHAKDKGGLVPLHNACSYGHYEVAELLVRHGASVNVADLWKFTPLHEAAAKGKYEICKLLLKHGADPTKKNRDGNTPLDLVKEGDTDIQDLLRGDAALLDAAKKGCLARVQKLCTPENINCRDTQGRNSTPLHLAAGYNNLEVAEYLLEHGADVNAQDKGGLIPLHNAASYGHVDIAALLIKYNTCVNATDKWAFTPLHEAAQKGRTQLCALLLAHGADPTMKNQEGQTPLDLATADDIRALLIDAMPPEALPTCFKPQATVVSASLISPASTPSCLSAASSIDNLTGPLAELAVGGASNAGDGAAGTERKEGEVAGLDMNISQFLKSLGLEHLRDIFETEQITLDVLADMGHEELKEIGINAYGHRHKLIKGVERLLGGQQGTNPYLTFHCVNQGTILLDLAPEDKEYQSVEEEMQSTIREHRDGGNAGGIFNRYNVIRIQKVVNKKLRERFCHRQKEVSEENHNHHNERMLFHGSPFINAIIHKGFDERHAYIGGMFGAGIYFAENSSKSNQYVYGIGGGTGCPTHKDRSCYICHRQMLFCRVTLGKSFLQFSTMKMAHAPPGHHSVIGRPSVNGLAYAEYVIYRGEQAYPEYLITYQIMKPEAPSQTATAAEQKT

[1] = Lipophilicity, log D of the compound at pH 7.4; assay type: physicochemical; settings: buffer
[2] = target: T2, Poly [ADP-ribose] polymerase tankyrase-1 (Homo sapiens, UniProt O95271); assay: Inhibition of GST-tagged human recombinant TNKS1 incubated for 1 hr using NAD+, biotinylated NAD+ and activated DNA by luminescence based assay
T2 sequence (O95271 whole entry): T1 sequence (O95271 whole entry)

CC(C)(C)c1ccc(-c2nc3c(sc4ccccc43)c(=O)[nH]2)cc1
IC50 (Tankyrase 1/2): 832 nM | logD [1]: 5.16 | IC50 [2]: 21.3 nM
